One assay has as its target T1, ULK1 kinase (Homo sapiens, UniProt O75385, E37A/K38A).
T1 construct: (residues 1-283; ID NO: 1); purchased Beryllium
T1 sequence (O75385 1-283 E37A/K38A): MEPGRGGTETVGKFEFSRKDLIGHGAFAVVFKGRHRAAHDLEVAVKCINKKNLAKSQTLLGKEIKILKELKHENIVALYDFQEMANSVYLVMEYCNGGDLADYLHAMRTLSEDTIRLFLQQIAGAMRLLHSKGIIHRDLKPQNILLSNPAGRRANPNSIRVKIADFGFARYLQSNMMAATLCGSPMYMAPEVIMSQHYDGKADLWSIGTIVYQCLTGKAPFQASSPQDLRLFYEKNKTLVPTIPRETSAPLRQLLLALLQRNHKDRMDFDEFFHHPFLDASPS
The assay can be described thus: Biochemical assay for ULK1 (coupled pyruvate kinase/lactate dehydrogenase assay). As to conditions: 1 mM ATP, 0.1 nM ULK1; read-out: ULK1 (inhibition of biochemical activity), IC50. The method, then: Biochemical Assay for ULK1 (SEQ. ID NO: 1)
Activity of ULK1 kinase was determined spectroscopically using a coupled pyruvate kinase/lactate dehydrogenase assay that continuously monitors the ATP hydrolysis-dependent oxidation of NADH (e.g., Schindler et al. Science (2000) 289: 1938-1942). Assays were conducted in 384-well plates (100 μL final volume) using 0.1 nM ULK1 (from Beryllium), 0.075 mM peptide substrate (YANWLAASIYLDGKKK), 1.5 units pyruvate kinase, 2.1 units lactate dehydrogenase, 1 mM phosphoenol pyruvate, 0.28 mM NADH and 1 mM ATP in assay buffer (100 mM Tris, pH 7.5, 15 mM MgCl2, 0.5 mM DTT, 0.004% (w/v) BSA, and 0.004% Triton X-100). Inhibition of ULK1 was measured by adding serial diluted test compound (final assay concentration of 1% DMSO). A decrease in absorption at 340 nm was monitored continuously for 6 h at 30° C. on a multi-mode microplate reader (BioTek). The reaction rate was calculated using the 2-3 h time frame. The reaction rate at each concentration of compound was converted to percent inhibition using controls (i.e., reaction with no test compound and reaction with a known inhibitor) and IC50 values were calculated using software routines in Prism (GraphPad software).

The next assay addresses T2, ULK2 kinase (Homo sapiens, UniProt Q8IYT8).
T2 construct: (residues 1-306 with N-terminal GST and His tag; ID NO: 2); purchased Signal Chem U02-11G
The assay can be described thus: Biochemical assay for ULK2 (coupled pyruvate kinase/lactate dehydrogenase assay). As to conditions: 1 mM ATP, 1 nM ULK2; read-out: ULK2 (inhibition of biochemical activity), IC50. The method, then:
Biochemical Assay for ULK2 (SEQ. ID NO: 2)
Activity of ULK2 kinase was determined spectroscopically using a coupled pyruvate kinase/lactate dehydrogenase assay that continuously monitors the ATP hydrolysis-dependent oxidation of NADH (e.g., Schindler et al. Science (2000) 289: 1938-1942). Assays were conducted in 384-well plates (100 μL final volume) using 1 nM ULK2 (Signal Chem U02-11G), 200 μM ULKtide, 1.5 units pyruvate kinase, 2.1 units lactate dehydrogenase, 1 mM phosphoenol pyruvate, 0.28 mM NADH and 1 mM ATP in assay buffer (100 mM Tris, pH 7.5, 15 mM MgCl2, 0.5 mM DTT, 0.1% octyl-glucoside, 0.002% (w/v) BSA, and 0.002% Triton X-100). Inhibition of ULK2 was measured by adding serial diluted test compound (final assay concentration of 1% DMSO). A decrease in absorption at 340 nm was monitored continuously for 6 h at 30° C. on a multi-mode microplate reader (BioTek). The reaction rate was calculated using the 2-3 h time frame. The reaction rate at each concentration of compound was converted to percent inhibition using controls (i.e., reaction with no test compound and reaction with a known inhibitor) and IC50 values were calculated by fitting a four-parameter sigmoidal curve to the data using Prism (GraphPad software).

The values below come from patent publication US20240150368A1, “ULK INHIBITORS AND METHODS OF USE THEREOF” (Deciphera Pharmaceuticals, LLC, priority 2022, published 2024).

T2 sequence (Q8IYT8 with tags, fused parts or gaps): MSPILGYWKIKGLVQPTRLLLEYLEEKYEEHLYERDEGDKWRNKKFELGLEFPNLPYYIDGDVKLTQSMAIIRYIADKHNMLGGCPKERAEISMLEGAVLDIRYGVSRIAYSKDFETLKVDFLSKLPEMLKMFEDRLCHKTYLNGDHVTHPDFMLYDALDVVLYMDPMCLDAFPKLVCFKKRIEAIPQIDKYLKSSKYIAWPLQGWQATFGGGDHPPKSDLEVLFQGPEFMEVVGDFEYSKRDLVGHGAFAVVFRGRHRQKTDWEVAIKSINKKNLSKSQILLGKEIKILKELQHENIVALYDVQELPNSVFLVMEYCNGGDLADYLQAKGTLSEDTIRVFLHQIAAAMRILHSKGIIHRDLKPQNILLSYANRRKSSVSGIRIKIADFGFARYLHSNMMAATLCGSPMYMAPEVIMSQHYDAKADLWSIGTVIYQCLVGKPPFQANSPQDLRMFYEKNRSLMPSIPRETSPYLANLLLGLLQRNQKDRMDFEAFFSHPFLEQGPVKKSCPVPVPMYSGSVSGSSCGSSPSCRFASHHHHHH

By IC50 is commonly meant the midpoint of a concentration-inhibition curve. With `CC/C(Nc1ccc(N2CCN(C)CC2)cc1)=C1/C(=O)Nc2ccc(C(=O)NOC)cc21` [Example 10], the IC50 on ULK1 kinase was 100 to 500 nM.
Turning to `CC/C(Nc1cnn(C2CCN(C(C)C)CC2)c1)=C1/C(=O)Nc2ccc(C(=O)N3CCCO3)cc21` [Example 12], on ULK1 kinase, the IC50 was in the range of 100 to 500 nM.
As for `CC/C(Nc1cnn(C2CCN(C(C)C)CC2)c1)=C1/C(=O)Nc2ccc(C(=O)NC)cc21` [Example 13], the IC50 at ULK1 kinase fell in the range of 100 to 500 nM.
On the same count and under the same terms, as for `CCNC(=O)c1ccc2c(c1)/C(=C(\CC)Nc1cnn(C3CCN(C(C)C)CC3)c1)C(=O)N2` [Example 14], the figure is 100 to 500 nM.
Regarding `CC/C(Nc1cnn(C2CCN(C(C)C)CC2)c1)=C1/C(=O)Nc2ccc(C(=O)NC(C)C)cc21` [Example 17], the results for the concentration for half-maximal inhibition (IC50) on ULK2 kinase and on ULK1 kinase were 100 to 500 nM and 10 to 100 nM, respectively.
For `CC/C(Nc1cnn(C2CCN(C(C)C)CC2)c1)=C1/C(=O)Nc2ccc(C(=O)NCC3COC3)cc21` [Example 18], the IC50 on ULK1 kinase lay within 10 to 100 nM.
As for `CC/C(Nc1cnn(C2CCN(C(C)C)CC2)c1)=C1/C(=O)Nc2ccc(C(=O)NC[C@@H]3CCCO3)cc21` [Example 19], the IC50 on ULK2 kinase and on ULK1 kinase was 10 to 100 nM throughout.
On to `CC/C(Nc1cnn(C2CCN(C(C)C)CC2)c1)=C1/C(=O)Nc2ccc(C(=O)N3CCOCC3)cc21` [Example 20], for which the 50% inhibitory concentration (IC50) at ULK1 kinase is more than 500 nM.
As to `CC/C(Nc1cnn(C2CCN(C(C)C)CC2)c1)=C1/C(=O)Nc2ccc(C(=O)NOC)cc21` [Example 22], the IC50 on ULK1 kinase fell in the range of 10 to 100 nM.
On the same count and under the same terms, to `COCCNC(=O)c1ccc2c(c1)/C(=C(\C)Nc1cnn(C3CCN(C(C)C)CC3)c1)C(=O)N2` [Example 23] belongs 10 to 100 nM.
Regarding `CC/C(Nc1cnn(C2CCN(C(C)C)CC2)c1)=C1/C(=O)Nc2ccc(C(=O)NC3COC3)cc21` [Example 25], the IC50 on ULK2 kinase was more than 500 nM; on ULK1 kinase it was 100 to 500 nM.
`C/C(Nc1cnn(C2CCN(C(C)C)CC2)c1)=C1/C(=O)Nc2ccc(C(=O)NC[C@H]3CCCO3)cc21` [Example 45]: the IC50 at ULK1 kinase is not above 10 nM.
Consider `CC/C(Nc1cnn(C2CCN(C(C)C)CC2)c1)=C1/C(=O)Nc2ccc(C(=O)NCCc3cnn(C)c3)cc21` [Example 49], for which the IC50 at ULK1 kinase was 100 to 500 nM.
`CC/C(Nc1cnn(C2CCN(C(C)C)CC2)c1)=C1/C(=O)Nc2ccc(C(=O)NCc3cnn(C)c3)cc21` [Example 50]: the IC50 on ULK1 kinase was 100 to 500 nM.
As for `CC/C(Nc1cnn(C2CCN(C(C)C)CC2)c1)=C1/C(=O)Nc2ccc(C(=O)NCC3(C)CCCO3)cc21` (stereo not shown) [Example 56], the IC50 on ULK2 kinase is 100 to 500 nM; on ULK1 kinase it was 10 to 100 nM.
Turning to `CC/C(Nc1cnn(C2CCN(C(C)C)CC2)c1)=C1/C(=O)Nc2ccc(C(=O)NCC(=O)N3CCCC3)cc21` [Example 57], the half-inhibitory concentration (IC50) on ULK1 kinase was 100 to 500 nM.
`CC/C(Nc1cnn(C2CCN(C(C)C)CC2)c1)=C1/C(=O)Nc2ccc(C(=O)NCCC(=O)N(C)C)cc21` [Example 59]: the IC50 on ULK1 kinase was 100 to 500 nM.
As to `CC/C(Nc1cnn(C2CCN(C(C)C)CC2)c1)=C1/C(=O)Nc2ccc(C(=O)N3CCCC3)cc21` [Example 81], at ULK1 kinase, the IC50 is more than 500 nM.
For the molecule `CC/C(Nc1cnn(C2CNC2)c1)=C1/C(=O)Nc2ccc(C(=O)NC[C@H]3CCCO3)cc21` [Example 96], the IC50 is 10 to 100 nM on ULK2 kinase and not above 10 nM on ULK1 kinase.
Consider `CC/C(Nc1cc(C(C)C)ccn1)=C1/C(=O)Nc2ccc(C(=O)NCC(F)(F)F)cc21` [Example 97], for which the IC50 on ULK2 kinase lay in the range of 10 to 100 nM; at ULK1 kinase, 100 to 500 nM.
With `CC/C(Nc1ccn(C(C)C)n1)=C1/C(=O)Nc2ccc(C(=O)NCC(F)(F)F)cc21` [Example 99], the values for the IC50 on ULK2 kinase and at ULK1 kinase were more than 500 nM and 100 to 500 nM, respectively.
The matching figures for `CC/C(Nc1cnn(C(C)C)n1)=C1/C(=O)Nc2ccc(C(=O)NCC(F)(F)F)cc21` [Example 110]: 100 to 500 nM and 10 to 100 nM.
Turning to `CC/C(Nc1ccc(C(C)C)nc1)=C1/C(=O)Nc2ccc(C(=O)NCC(F)(F)F)cc21` [Example 111], the IC50 at ULK2 kinase and at ULK1 kinase was 100 to 500 nM throughout.
Regarding `CC/C(Nc1cn(C)nc1C)=C1/C(=O)Nc2ccc(C(=O)NCC(F)(F)F)cc21` [Example 115], the concentration for half-maximal inhibition (IC50) on ULK2 kinase and on ULK1 kinase was more than 500 nM each time.
As for `CC/C(Nc1cnn(C(C)C)c1)=C1/C(=O)Nc2ccc(C(=O)N[C@@H](C)C(F)(F)F)cc21` [Example 120], the IC50 at ULK2 kinase is 100 to 500 nM; at ULK1 kinase it was 10 to 100 nM.
As for `CC/C(Nc1cnn2c1CCC2)=C1/C(=O)Nc2ccc(C(=O)NCC(F)(F)F)cc21` [Example 121], the IC50 on ULK2 kinase and at ULK1 kinase was more than 500 nM throughout.
Consider `CC/C(Nc1cnn(C(C)C)c1)=C1/C(=O)Nc2ccc(C(=O)N(C)C[C@H]3CCCO3)cc21` [Example 129], for which the results for the IC50 at ULK2 kinase and on ULK1 kinase were 100 to 500 nM and 10 to 100 nM, respectively.
The like results for `CC/C(Nc1cnn(C(C)C)c1)=C1/C(=O)Nc2ccc(C(=O)NC3CC3)cc21` [Example 131] were, in that order, 100 to 500 nM and 100 to 500 nM.
With `CC/C(Nc1cnn(C(C)C)c1)=C1/C(=O)Nc2ccc(C(=O)NC(C)C)cc21` [Example 132], the results for the IC50 at ULK2 kinase and at ULK1 kinase were more than 500 nM and 100 to 500 nM, respectively.
As for `CC/C(Nc1cnn(C(C)C)c1)=C1/C(=O)Nc2ccc(C(=O)NC)cc21` [Example 133], the half-inhibitory concentration (IC50) at ULK2 kinase was more than 500 nM; at ULK1 kinase, 100 to 500 nM.
With `CC/C(Nc1cnn(C2CCN(C(C)C)CC2)c1)=C1/C(=O)Nc2ccc(C(=O)N(C)OC)cc21` [Example 139], on ULK1 kinase, the IC50 is 100 to 500 nM.
With `CC/C(Nc1cnn(C(C)C)c1)=C1/C(=O)Nc2cc(Cl)c(C(=O)NCC(F)(F)F)cc21` [Example 141], the IC50 at ULK2 kinase and at ULK1 kinase was 100 to 500 nM each time.
Turning to `CC/C(Nc1nc(C)co1)=C1/C(=O)Nc2ccc(C(=O)NCC(F)(F)F)cc21` [Example 143], the results for the IC50 on ULK2 kinase and at ULK1 kinase were more than 500 nM and 100 to 500 nM, respectively.
Regarding `CC/C(Nc1nnc(C)o1)=C1/C(=O)Nc2ccc(C(=O)NCC(C)(C)F)cc21` [Example 146], the IC50 at ULK2 kinase and on ULK1 kinase was 100 to 500 nM throughout.
For the molecule `CC/C(Nc1cnn(C(C)C)c1)=C1/C(=O)Nc2ccc(C(=O)N3CC[C@@H](C(F)(F)F)C3)cc21` [Example 150], the values for the IC50 on ULK2 kinase and on ULK1 kinase were more than 500 nM and 100 to 500 nM, respectively.
As to `CC/C(Nc1cnn(C(C)C)c1)=C1/C(=O)Nc2ccc(C(=O)N3CC[C@H](C(F)(F)F)C3)cc21` [Example 151], the figures for the IC50 on ULK2 kinase and on ULK1 kinase were 100 to 500 nM and 10 to 100 nM, respectively.
With `CC/C(Nc1ncc(C)o1)=C1/C(=O)Nc2ccc(C(=O)NCC(F)(F)F)cc21` [Example 155], the IC50 fell in the range of 100 to 500 nM at ULK2 kinase and 10 to 100 nM at ULK1 kinase.
`CC/C(Nc1cnn(C(C)C)c1)=C1/C(=O)Nc2ccc(C(=O)NCCN3CCC3)cc21` [Example 162]: the half-maximal inhibitory concentration (IC50) at ULK2 kinase and on ULK1 kinase was more than 500 nM in each case.
For `CC/C(Nc1cnn(C(C)C)c1)=C1/C(=O)Nc2ccc(C(=O)NCC3(OC)CC3)cc21` [Example 163], the results for the IC50 at ULK2 kinase and at ULK1 kinase were 100 to 500 nM and 10 to 100 nM, respectively.
For `CC/C(Nc1cnn(C(C)C)c1)=C1/C(=O)Nc2ccc(C(=O)NCCC(C)(C)F)cc21` [Example 164], the figures for the IC50 on ULK2 kinase and on ULK1 kinase were 10 to 100 nM and not above 10 nM, respectively.
The matching figures for `CC/C(Nc1cnn(C2CCC2)c1)=C1/C(=O)Nc2ccc(C(=O)NCC(C)(C)F)cc21` [Example 165]: not above 10 nM and not above 10 nM.
Turning to `CC/C(Nc1cnn(C(C)C)c1)=C1/C(=O)Nc2ccc(C(=O)NC(C)(C)CC(F)(F)F)cc21` [Example 167], the half-inhibitory concentration (IC50) on ULK2 kinase and at ULK1 kinase was 100 to 500 nM each time.
`CC/C(Nc1cnn(C(C)C)c1)=C1/C(=O)Nc2ncc(C(=O)NCC(C)(C)F)cc21` [Example 170]: the IC50 at ULK2 kinase and on ULK1 kinase was 100 to 500 nM in each case.
Regarding `CC/C(Nc1cnn(C(C)C)c1)=C1/C(=O)Nc2ncc(C(=O)NCC(F)(F)F)cc21` [Example 171], the IC50 on ULK2 kinase and on ULK1 kinase was 100 to 500 nM each time.
